Laboratory results from publication PMC7144209, “Design, synthesis and anticancer activity of naphthoquinone derivatives” (Journal of Enzyme Inhibition and Medicinal Chemistry, 2020).

What was measured:
[1] = test system: SMMC-7721; assay: MTT cell viability assay, SMMC-7721 cells; type: cell-based; conditions: Homo sapiens, 48 h, n = 3
Experimental: MGC-803, SGC-7901, U87 and SMMC-7721 cell lines were cultured in DMEM supplemented with 10% foetal bovine serum, 100 IU/mL penicillin/streptomycin. The cells were incubated in an atmosphere containing 5% CO2 at 37 °C.
MGC-803, SGC-7901, U87 and SMMC-7721 cells were plated in 96-well plate at 7000 per well. Cells were incubated with the different concentrations of the compounds for 48 h. Subsequently, MTT (0.5 mg/mL) were used to test the cell viability, then 150 μL DMSO was added to each well after cells were incubated for 4 h and the absorbance was measured at 492 nm.

[2] = test system: L02; assay: MTT cell viability assay, L02 cells; type: cell-based; conditions: Homo sapiens, n = 3
[3] = test system: SGC-7901 cells; assay: Acridine orange (AO) staining of acidic vesicles; type: cell-based, human; conditions: SGC-7901, 1, 2, and 4 μM, 48 h
Experimental: PH-sensitive Acridine orange (AO) was used to label acidic vesicles. Human gastric cancer cells were seeded in laser confocal dishes at 10,000/ml. After indicated treatment of compound 12 (1 μM, 2 μM, 4 μM) for 48 h, cells were stained with AO (1 μg/ml) for 15 min at the cell culture incubator. After the cells were washed by PBS, pictures were acquired under laser confocal microscope.
Another typical feature of autophagy is the accumulation of the acidic autophagic vacuoles (AVOs)[45]^,[46]. To verify the development of AVOs, Acridine Orange (AO) staining was used to examine whether the acidic vesicular organelles in SGC-7901 cells were increased. AO produces red fluorescence when it accumulates in acidic regions such as autophagy lysosomes and lysosomes and produces bright green fluorescence in the cytoplasm and the nucleus. […] GFP-LC3 indicating technique was also used to detect the autophagy at the same time. When autophagy is formed, multiple bright green fluorescent spots will form as the GFP-LC3 fusion protein can translate to autophagosome membrane. From Figure 6(C), compared to the blank control group, GFP-LC3 puncta were increased after cells treated with compound 12 (4 μM) meanwhile decreased after treated with compound 12 (4 μM) and 3-MA (500 μM).

[4] = test system: SGC-7901 cells; assay: Annexin V-FITC/PI apoptosis assay (flow cytometry); type: cell-based, human; conditions: 48 h; for total apoptosis: control 4.34%
Experimental: After the indicated treatments for 48 h, cells were collected, washed three times with cold PBS, centrifuged and resuspended with 400 μL AnnexinV binding buffer per tube. Then the cells were stained with 5μLAnnexinV-FITC and incubated in the dark for 10 min on ice. Finally, 10 μL PI staining solution was added, and cells were detected by the flow cytometry after incubated in the dark for 5 min. Flowjo 7.6.1 software was used to analyse the cell apoptosis.
Apoptosis is one of the main methods that result in cell death. In this study, Annexin V-FITC/PI kit was used to evaluate the cell apoptosis. […] To further, investigate whether the cell apoptosis induced by title compound, Western blot analysis was used to measure the effect of the compound on apoptosis of SGC-7901 cell. As reported that apoptosis pathway could be regulated by the activation of PARP and Bcl2 family proteins[40]^,[41].

**Q.** For `CC(C)=CCC(OC(=O)CCC(=O)Nc1ccc(Oc2ccccc2)cc1)C1=CC(=O)c2c(O)ccc(O)c2C1=O` (stereo not shown) [Compound 12, 1-(5,8-dihydroxy-1,4-dioxo-1,4-dihydronaphthalen-2-yl)-4-methylpent-3-en-1-yl-4-oxo-4-((4-phenoxyphenyl)amino)butanoate], which IC50 [1] is on record?
**A.** 20.6 ± 0.4 µM

**Q.** What about the IC50 [2] of the same compound?
**A.** > 50 µM

**Q.** And the “red fluorescently labelled acidic vesicles (AO staining)” value [3]?
**A.** accumulated obviously

**Q.** And the total apoptosis ([4]; SGC-7901, 1 μM)?
**A.** 6.45%

**Q.** And the total apoptosis ([4]; SGC-7901, 2 μM)?
**A.** 9.72%

**Q.** What about the total apoptosis ([4]; SGC-7901, 4 μM) of the same compound?
**A.** 19.9%

**Q.** And the “apoptosis rate in the presence of 3-MA compared with compound 12 alone” value ([4]; compound 12 4 μM, 3-MA 500 μM)?
**A.** decreased
